Data: patent publication US20040229934A1, “Method of reducing type 2 diabetes in high risk patients” (priority 2002, published 2004)

Tests used:
[1] = test system: patients older than 55 years without known diabetes but with vascular disease; assay: Heart Outcomes Prevention Evaluation (HOPE) trial: new diagnosis of diabetes; format: in vivo; conditions: for New Diabetes With Glycated Hemoglobin ≧110% ULN, RR (95% CI) / New Diabetes With Oral Agents or Insulin and Glycated Hemoglobin ≧110% ULN, RR (95% CI) / New Diabetes With Oral Agents or Insulin, RR (95% CI) / New Diabetes, RR (95% CI): vs placebo
Description: The design of the Heart Outcomes Prevention Evaluation (HOPE) trial has been described in detail in previous publications. Briefly, individuals who were 55 years or older with no evidence of left ventricular dysfunction or heart failure and who had evidence of vascular disease or who had diabetes and 1 other risk factor were eligible as long as they had no indication or contraindication to receiving an ACE-inhibitor. The study was conducted in […] in 19 countries from 1994 to 1999. All patients provided written informed consent. Of 10576 eligible patients who participated in a run-in period during which they received 2.5 mg ramipril once daily for 1 week followed by matching placebo for 10 to 14 days, 1035 (9.8%) were excluded from randomization (3.2% for side effects, 3.7% for lack of consent). […] This Example focuses primarily on the latter group of patients. Of these patients, 5720 were randomized to receive up to 10 mg of ramipril once per day or equivalent placebo. One hundred sixty-seven patients who were randomized to receive a low dose (2.5 mg/day) of ramipril as part of the Study to Evaluate Carotid Ultrasound changes with Ramipril and Vitamin E (SECURE). All randomized patients were also randomized to receive 400 IU of Vitamin E or placebo. Follow-up visits occurred at 1 month and 6 months after randomization and then every 6 months (mean follow-up of 4.5 years). At each visit, we documented whether the diagnosis of diabetes had been made since the last visit. The primary outcome of this analysis is a new diagnosis of diabetes recorded on the basis of self-report. […] Hemoglobin A1c (HbA1c) levels and medications used among those diagnosed as having diabetes were also recorded. The HbA1c, levels were determined locally. Values higher than 110% of the upper limit of normal for each laboratory were considered to be biochemical confirmation of diabetes. Survival curves utilizing the Kaplan Meier and log-rank procedures were used to describe and compare the results in the 2 treatment groups. Because of the factorial design, all analyses were stratified for randomization to vitamin E or placebo. Subgroup analyses were conducted using tests of interaction in the Cox regression model. Design, Setting and Participants. The randomized, controlled Heart Outcomes Prevention Evaluation trial of 5720 patients older than 55 years without known diabetes but with vascular disease who were followed up for a mean of 4.5 years. The study included 267 hospitals in 19 countries and was conducted between 1994 and 1999. Intervention. Patients were randomly assigned to receive ramipril, up to 10 mg/d (n=2837), or I Main Outcome Measure. Diagnosis of diabetes determined from self-report at follow-up visits every 6 months, compared between the 2 groups.

patients with diabetes = assay: HOPE trial: HbA1c levels among the patients with diabetes; format: in vivo; conditions: serial annual recordings, first 2 years
Description: The Study to Evaluate Carotid Ultrasound changes in patients treated with Ramipril and vitamin E (SECURE) in which fasting glucose increased more with placebo (15.8 mg/dL [0.41 mmols]) than with ramipril (9.6 mg/dL (0.25 mmols]; P=0.03). Among the patients with diabetes in the HOPE study, there was a significant reduction in HbA1c levels during serial annual recordings occurred during the first 2 years (absolute difference, 0.2%). In the UK Prospective Diabetes Study (UKPDS) and in the Captopril Prevention Project, patients randomized to receive ACE inhibitors had lower levels of HbA1c or less development of diabetes compared with those taking β-blockers or diuretics. However, it is not clear whether the differences in development of diabetes observed in these studies are due to a protective effect of ACE inhibitors or an adverse effect of β-blockers or diuretics.

[2] = controlling for primary events and development of MA or ON
[3] = ramipril up to 10 mg/d, n=2837, mean follow-up 4.5 years

In the case of `CCOC(=O)[C@H](CCc1ccccc1)N[C@@H](C)C(=O)N1[C@H](C(=O)O)C[C@@H]2CCC[C@@H]21` [ramipril], the “RR, footnote | | (New Diabetes With Oral Agents or Insulin and Glycated Hemoglobin ≧110% ULN): new diabetes with patient taking glucose-lowering therapy” value [1, 2] is reported as “| |Controlling for primary events and development of MA or ON, new diabetes with patient taking glucose-lowering therapy had a 0.52 RR (95% CI, 35-0.78)”, the “RR, footnote § (New Diabetes With Oral Agents or Insulin): new diabetes with patient taking glucose-lowering therapy” value [1, 2] is reported as “§Controlling for primary events and development of MA or ON, new diabetes with patient taking glucose-lowering therapy had a 0.58 RR (95% CI, 42-0.79)” and the “RR, footnote † (New Diabetes): new diabetes with glycated hemoglobin 110%” value [1, 2] is reported as “†Controlling for primary events and development of MA or ON, new diabetes with glycated hemoglobin 110% had a 0.67 RR (95% CI, 0..52-0.86)”. For the same compound, the “RR, footnote ‡ (New Diabetes With Glycated Hemoglobin ≧110% ULN): new diabetes with patient taking glucose-lowering therapy” value [1, 2] was “‡Controlling for primary events and development of MA or ON, new diabetes with patient taking glucose-lowering therapy had a 0.58 RR (95% CI, 44-0.88)”, the “proportion diagnosed with diabetes receiving an oral glucose lowering agent or insulin” value ([1]; ramipril group) was 2.1% and the “proportion of patients diagnosed to have diabetes and a documented glycated hemoglobin of 110% or more above the upper limit of normal” value ([1]; ramipril group) was 1.8%. The “proportion with all criteria (diabetes, glycated hemoglobin, glucose-lowering therapy)” value ([1]; ramipril group) was 1.3%, the “relative risk [RR] of new diagnosis of diabetes” value ([1]; ramipril group vs placebo group) was 0.66 and the “individuals who reported a new diagnosis of diabetes (number)” value [1, 3] was 102 and One hundred and two. The “individuals who reported a new diagnosis of diabetes (proportion)” value [1, 3] was 3.6%, the “RR for diabetes in the subgroup who never took diuretics or β-blockers during the study” value ([1]; ramipril vs placebo) was 0.62 and the “RR, all criteria (both)” value ([1]; ramipril vs placebo) was 0.51. For the same compound, the “RR, diabetes with oral glucose lowering agent or insulin (initiation of glucose-lowering therapy)” value ([1]; ramipril vs placebo) was 0.56, the “RR, diagnosis of diabetes and glycated hemoglobin 110% or more” value ([1]; ramipril vs placebo) was 0.60 and the “New Diabetes With Glycated Hemoglobin ≧110% ULN, number of patients” value ([1]; stratum: no new MA or ON) was 42. The “New Diabetes With Glycated Hemoglobin ≧110% ULN, proportion (in parentheses)” value ([1]; stratum: no new MA or ON) was 1.7, the “New Diabetes With Oral Agents or Insulin and Glycated Hemoglobin ≧110% ULN, number of patients” value ([1]; stratum: no new MA or ON) was 30 and the “New Diabetes With Oral Agents or Insulin and Glycated Hemoglobin ≧110% ULN, proportion (in parentheses)” value ([1]; stratum: no new MA or ON) was 1.2. The “New Diabetes With Oral Agents or Insulin, number of patients” value ([1]; stratum: no new MA or ON) was 45, the “New Diabetes With Oral Agents or Insulin, proportion (in parentheses)” value ([1]; stratum: no new MA or ON) was 1.8 and the “New Diabetes, number of patients” value ([1]; stratum: no new MA or ON) was 82. The “New Diabetes, proportion (in parentheses)” value (“New Diabetes, proportion” for short) ([1]; stratum: no new MA or ON) was 9.3, the “New Diabetes With Glycated Hemoglobin ≧110% ULN, RR (95% CI)” value ([1]; stratum: no new MA or ON) was 0.66 (0.48-0.98) and the “New Diabetes With Oral Agents or Insulin and Glycated Hemoglobin ≧110% ULN, RR (95% CI)” value ([1]; stratum: no new MA or ON) was 0.80 (0.38-0.84). The “New Diabetes With Oral Agents or Insulin, RR (95% CI)” value ([1]; stratum: no new MA or ON) was 0.56 (0.39-0.81), the “New Diabetes, RR (95% CI)” value ([1]; stratum: no new MA or ON) was 0.87 (0.51-0.89) and the “New Diabetes With Glycated Hemoglobin ≧110% ULN, number of patients” value ([1]; stratum: no primary event) was 45. The “New Diabetes With Glycated Hemoglobin ≧110% ULN, proportion (in parentheses)” value ([1]; stratum: no primary event) was 1.8, the “New Diabetes With Oral Agents or Insulin and Glycated Hemoglobin ≧110% ULN, number of patients” value ([1]; stratum: no primary event) was 32 and the “New Diabetes With Oral Agents or Insulin and Glycated Hemoglobin ≧110% ULN, proportion (in parentheses)” value ([1]; stratum: no primary event) was 1.9. The “New Diabetes With Oral Agents or Insulin, number of patients” value ([1]; stratum: no primary event) was 54, the “New Diabetes With Oral Agents or Insulin, proportion (in parentheses)” value ([1]; stratum: no primary event) was 2.2 and the “New Diabetes, number of patients” value ([1]; stratum: no primary event) was 93. The “New Diabetes, proportion” value ([1]; stratum: no primary event) was 3.8, the “New Diabetes With Glycated Hemoglobin ≧110% ULN, RR (95% CI)” value ([1]; stratum: no primary event) was 0.81 (0.42-0.89) and the “New Diabetes With Oral Agents or Insulin and Glycated Hemoglobin ≧110% ULN, RR (95% CI)” value ([1]; stratum: no primary event) was 0.61 (0.33-.78). For the same compound, the “New Diabetes With Oral Agents or Insulin, RR (95% CI)” value ([1]; stratum: no primary event) was 0.58 (0.42-0.82), the “New Diabetes, RR (95% CI)” value ([1]; stratum: no primary event) was 0.69 (0.53-0.91) and the “New Diabetes With Glycated Hemoglobin ≧110% ULN, number of patients” value ([1]; stratum: with new MA or ON) was 10. The “New Diabetes With Glycated Hemoglobin ≧110% ULN, proportion (in parentheses)” value ([1]; stratum: with new MA or ON) was 2.8, the “New Diabetes With Oral Agents or Insulin and Glycated Hemoglobin ≧110% ULN, number of patients” value ([1]; stratum: with new MA or ON) was 6 and the “New Diabetes With Oral Agents or Insulin and Glycated Hemoglobin ≧110% ULN, proportion (in parentheses)” value ([1]; stratum: with new MA or ON) was 1.7. The “New Diabetes With Oral Agents or Insulin, number of patients” value ([1]; stratum: with new MA or ON) was 14, the “New Diabetes With Oral Agents or Insulin, proportion (in parentheses)” value ([1]; stratum: with new MA or ON) was 3.9 and the “New Diabetes, number of patients” value ([1]; stratum: with new MA or ON) was 20. For the same compound, the “New Diabetes, proportion” value ([1]; stratum: with new MA or ON) was 5.6, the “New Diabetes With Glycated Hemoglobin ≧110% ULN, RR (95% CI)” value ([1]; stratum: with new MA or ON) was 0.47 (0.23-0.98) and the “New Diabetes With Oral Agents or Insulin and Glycated Hemoglobin ≧110% ULN, RR (95% CI)” value ([1]; stratum: with new MA or ON) was 0.32 (0.13-0.79). The “New Diabetes With Oral Agents or Insulin, RR (95% CI)” value ([1]; stratum: with new MA or ON) was 0.61 (0.32-1.16), the “New Diabetes, RR (95% CI)” value ([1]; stratum: with new MA or ON) was 0.85 (0.38-1.12) and the “New Diabetes With Glycated Hemoglobin ≧110% ULN, number of patients” value ([1]; stratum: with primary event) was 7. For the same compound, the “New Diabetes With Glycated Hemoglobin ≧110% ULN, proportion (in parentheses)” value ([1]; stratum: with primary event) was 1.9, the “New Diabetes With Oral Agents or Insulin and Glycated Hemoglobin ≧110% ULN, number of patients” value ([1]; stratum: with primary event) was 4 and the “New Diabetes With Oral Agents or Insulin and Glycated Hemoglobin ≧110% ULN, proportion (in parentheses)” value ([1]; stratum: with primary event) was 1.1. For the same compound, the “New Diabetes With Oral Agents or Insulin, number of patients” value ([1]; stratum: with primary event) was 5, the “New Diabetes With Oral Agents or Insulin, proportion (in parentheses)” value ([1]; stratum: with primary event) was 1.3 and the “New Diabetes, number of patients” value ([1]; stratum: with primary event) was 9. For the same compound, the “New Diabetes, proportion” value ([1]; stratum: with primary event) was 2.4, the “New Diabetes With Glycated Hemoglobin ≧110% ULN, RR (95% CI)” value ([1]; stratum: with primary event) was 0.59 (0.24-1.43) and the “New Diabetes With Oral Agents or Insulin and Glycated Hemoglobin ≧110% ULN, RR (95% CI)” value ([1]; stratum: with primary event) was 0.64 (0.17-1.72). The “New Diabetes With Oral Agents or Insulin, RR (95% CI)” value ([1]; stratum: with primary event) was 0.42 (0.15-1.14), the “New Diabetes, RR (95% CI)” value ([1]; stratum: with primary event) was 0.48 (0.21-0.98) and the “results among subgroups with different risk factors for developing diabetes (FIG. 2)” value ([1]; waist to hip ratio, BMI, hypertension history, β-blockers or diuretics at randomization) was “consistent”. The “reduction in HbA1c levels, absolute difference” value (patients with diabetes) was 0.2%.

With Vitamin E the “effect on diabetes compared with placebo” value ([1]; 400 IU of Vitamin E, factorial design) was “did not differ”.
